Consider 22 compounds from ChEMBL document CHEMBL5214923, “Contemporary mTOR inhibitor scaffolds to diseases breakdown: A patent review (2015-2021)” (Eur J Med Chem, 2022).

Experiment [1] has as its target PI3-kinase p110-alpha/p85-alpha (Homo sapiens, UniProt P42336). In words: Inhibition of PI3K p110alpha/p85alpha (unknown origin) using PIP2 as substrate preincubated for 15 mins followed by substrate addition measured after 1 hr in presence of ATP by TR-FRET assay. Format: protein-complex assay.
Experiment [2] concerns the target Peptidyl-prolyl cis-trans isomerase FKBP1A (Homo sapiens, UniProt P62942). In words: Binding affinity to FKBP12 (unknown origin) assessed as inhibition constant.
In experiment [3] the target is T1, mTORC1 (Homo sapiens, UniProt P42345+Q8N122+Q9BVC4). In words: Inhibition of mTORC1 in human PC-3 cells assessed as measuring phosphorylated S6K level incubated for 24 hrs by AlphaLISA assay. The experiment is classed as cell-based.
Experiment [4] addresses T2, mTORC2 (Homo sapiens, UniProt P42345+Q6R327+Q9BPZ7+Q9BVC4). In words: Inhibition of mTORC2 in human PC-3 cells assessed as measuring phosphorylated Akt level incubated for 24 hrs by AlphaLISA assay. Format: cell-based.
Experiment [5] concerns the target T1, mTORC1. In words: Inhibition of mTORC1 in human MDA-MB-468 cells assessed as measuring phosphorylated P70S6K incubated for 2 to 4 hrs by AlphaLISA assay. The experiment is classed as cell-based.
The target of experiment [6] is T1, mTORC1. In words: Inhibition of mTORC1 in human MDA-MB-468 cells assessed as measuring phosphorylated 4EBP1 incubated for 2 to 4 hrs by AlphaLISA assay. The experiment is classed as cell-based.
Experiment [7] concerns the target T2, mTORC2. In words: Inhibition of mTORC2 in human MDA-MB-468 cells assessed as measuring phosphorylated AKT incubated for 2 to 4 hrs by AlphaLISA assay. The experiment is classed as cell-based.
The target of experiment [8] is T1, mTORC1. In words: Inhibition of mTORC1 (unknown origin) assessed as measuring phosphorylated p7OS6K level at 0.2 uM relative to control. Format: protein-complex assay.
In experiment [9] the target is T1, mTORC1. In words: Inhibition of mTORC1 (unknown origin) assessed as measuring phosphorylated 4EBP1 level at 1 uM relative to control. Format: protein-complex assay.

Molecules are shown by their SMILES. A value given as a limit tells only on which side of the number the result lay.

Sequence of PI3-kinase p110-alpha/p85-alpha (P27986 whole entry): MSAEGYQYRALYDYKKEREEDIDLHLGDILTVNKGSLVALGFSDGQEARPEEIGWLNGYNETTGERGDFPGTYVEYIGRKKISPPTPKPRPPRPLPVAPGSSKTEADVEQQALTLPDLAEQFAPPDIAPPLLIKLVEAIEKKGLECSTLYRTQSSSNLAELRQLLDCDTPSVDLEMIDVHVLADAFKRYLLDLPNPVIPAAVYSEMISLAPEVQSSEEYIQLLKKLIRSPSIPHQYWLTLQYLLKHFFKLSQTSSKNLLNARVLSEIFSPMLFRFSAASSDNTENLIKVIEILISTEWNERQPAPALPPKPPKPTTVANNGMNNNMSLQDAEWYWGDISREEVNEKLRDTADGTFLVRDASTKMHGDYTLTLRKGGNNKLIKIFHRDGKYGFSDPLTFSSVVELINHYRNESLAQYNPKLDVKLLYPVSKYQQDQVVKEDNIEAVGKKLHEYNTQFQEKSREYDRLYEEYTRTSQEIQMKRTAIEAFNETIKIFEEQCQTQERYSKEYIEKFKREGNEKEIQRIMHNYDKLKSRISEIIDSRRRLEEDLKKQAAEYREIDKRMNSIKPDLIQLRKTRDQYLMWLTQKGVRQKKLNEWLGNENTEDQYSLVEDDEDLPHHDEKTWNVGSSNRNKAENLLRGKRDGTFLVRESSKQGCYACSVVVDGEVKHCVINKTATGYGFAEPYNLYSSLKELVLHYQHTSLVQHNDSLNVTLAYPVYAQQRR
Sequence of PI3-kinase p110-alpha/p85-alpha (P42336 whole entry): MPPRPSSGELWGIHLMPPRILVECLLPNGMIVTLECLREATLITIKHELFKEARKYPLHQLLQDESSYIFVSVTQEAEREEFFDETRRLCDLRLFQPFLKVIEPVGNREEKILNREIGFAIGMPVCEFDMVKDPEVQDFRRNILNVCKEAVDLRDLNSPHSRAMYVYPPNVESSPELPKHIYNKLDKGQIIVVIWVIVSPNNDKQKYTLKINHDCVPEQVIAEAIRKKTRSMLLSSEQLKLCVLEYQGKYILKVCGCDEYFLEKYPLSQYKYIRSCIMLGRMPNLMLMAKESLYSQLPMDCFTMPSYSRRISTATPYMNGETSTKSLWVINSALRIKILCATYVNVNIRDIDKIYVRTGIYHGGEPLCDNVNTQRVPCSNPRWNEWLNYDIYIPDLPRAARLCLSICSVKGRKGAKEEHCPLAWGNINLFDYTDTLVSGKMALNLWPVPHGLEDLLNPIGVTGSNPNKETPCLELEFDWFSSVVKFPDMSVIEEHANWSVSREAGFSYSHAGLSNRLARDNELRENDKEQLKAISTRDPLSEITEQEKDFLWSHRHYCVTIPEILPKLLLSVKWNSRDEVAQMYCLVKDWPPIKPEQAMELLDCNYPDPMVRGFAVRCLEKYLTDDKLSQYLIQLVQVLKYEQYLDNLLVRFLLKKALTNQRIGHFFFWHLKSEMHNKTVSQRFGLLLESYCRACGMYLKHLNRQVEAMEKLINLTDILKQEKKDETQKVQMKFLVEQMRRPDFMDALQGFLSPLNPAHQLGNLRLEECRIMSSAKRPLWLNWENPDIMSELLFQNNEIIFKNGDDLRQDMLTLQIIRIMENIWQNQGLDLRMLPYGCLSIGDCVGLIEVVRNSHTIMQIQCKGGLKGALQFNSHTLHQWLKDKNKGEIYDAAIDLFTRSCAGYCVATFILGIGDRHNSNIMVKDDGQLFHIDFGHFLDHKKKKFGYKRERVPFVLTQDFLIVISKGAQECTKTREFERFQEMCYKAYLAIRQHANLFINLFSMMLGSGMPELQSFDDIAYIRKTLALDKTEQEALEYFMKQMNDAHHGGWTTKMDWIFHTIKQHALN
T2 sequence (Q6R327 whole entry, other chains not shown): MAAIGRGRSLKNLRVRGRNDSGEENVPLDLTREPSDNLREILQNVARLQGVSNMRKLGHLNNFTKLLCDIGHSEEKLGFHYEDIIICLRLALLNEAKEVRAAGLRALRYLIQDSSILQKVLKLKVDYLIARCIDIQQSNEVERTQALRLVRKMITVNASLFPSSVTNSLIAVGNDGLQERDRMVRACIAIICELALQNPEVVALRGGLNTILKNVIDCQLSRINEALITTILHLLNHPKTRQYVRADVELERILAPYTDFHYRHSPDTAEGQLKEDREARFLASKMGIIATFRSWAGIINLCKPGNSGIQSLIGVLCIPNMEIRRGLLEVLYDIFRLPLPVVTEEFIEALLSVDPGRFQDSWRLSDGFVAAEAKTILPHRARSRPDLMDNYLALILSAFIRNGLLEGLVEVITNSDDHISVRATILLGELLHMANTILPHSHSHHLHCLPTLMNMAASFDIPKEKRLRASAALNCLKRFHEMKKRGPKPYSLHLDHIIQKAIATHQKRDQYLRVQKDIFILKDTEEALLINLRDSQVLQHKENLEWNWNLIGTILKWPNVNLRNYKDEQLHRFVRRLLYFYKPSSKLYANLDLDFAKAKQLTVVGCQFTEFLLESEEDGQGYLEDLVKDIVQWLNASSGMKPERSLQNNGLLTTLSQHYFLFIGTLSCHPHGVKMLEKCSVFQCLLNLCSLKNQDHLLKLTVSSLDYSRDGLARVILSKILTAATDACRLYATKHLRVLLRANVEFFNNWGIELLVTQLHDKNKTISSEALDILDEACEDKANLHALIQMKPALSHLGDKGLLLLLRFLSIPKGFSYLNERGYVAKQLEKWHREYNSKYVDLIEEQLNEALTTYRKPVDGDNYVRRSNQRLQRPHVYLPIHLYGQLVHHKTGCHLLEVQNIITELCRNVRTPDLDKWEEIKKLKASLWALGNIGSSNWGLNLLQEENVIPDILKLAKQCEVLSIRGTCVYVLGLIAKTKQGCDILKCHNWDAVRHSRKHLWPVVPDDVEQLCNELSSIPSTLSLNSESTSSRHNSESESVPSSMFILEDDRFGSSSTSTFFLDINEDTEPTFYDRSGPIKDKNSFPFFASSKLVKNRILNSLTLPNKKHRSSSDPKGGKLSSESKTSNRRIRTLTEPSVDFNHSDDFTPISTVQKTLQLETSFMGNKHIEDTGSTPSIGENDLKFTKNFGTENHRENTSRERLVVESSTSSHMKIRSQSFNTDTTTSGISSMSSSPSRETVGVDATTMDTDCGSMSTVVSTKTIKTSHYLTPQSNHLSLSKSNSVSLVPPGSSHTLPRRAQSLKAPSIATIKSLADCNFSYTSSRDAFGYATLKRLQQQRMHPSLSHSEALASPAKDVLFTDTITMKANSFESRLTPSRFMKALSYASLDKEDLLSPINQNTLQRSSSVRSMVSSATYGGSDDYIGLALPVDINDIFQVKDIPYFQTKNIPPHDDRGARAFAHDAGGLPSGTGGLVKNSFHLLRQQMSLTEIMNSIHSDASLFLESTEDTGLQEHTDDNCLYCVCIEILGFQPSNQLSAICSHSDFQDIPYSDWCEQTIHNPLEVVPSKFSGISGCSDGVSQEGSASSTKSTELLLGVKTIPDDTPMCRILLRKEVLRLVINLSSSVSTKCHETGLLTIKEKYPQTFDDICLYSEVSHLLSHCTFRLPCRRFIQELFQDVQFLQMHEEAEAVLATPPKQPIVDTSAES
T2 sequence (Q9BPZ7 2-522 limits assumed, other chains not shown): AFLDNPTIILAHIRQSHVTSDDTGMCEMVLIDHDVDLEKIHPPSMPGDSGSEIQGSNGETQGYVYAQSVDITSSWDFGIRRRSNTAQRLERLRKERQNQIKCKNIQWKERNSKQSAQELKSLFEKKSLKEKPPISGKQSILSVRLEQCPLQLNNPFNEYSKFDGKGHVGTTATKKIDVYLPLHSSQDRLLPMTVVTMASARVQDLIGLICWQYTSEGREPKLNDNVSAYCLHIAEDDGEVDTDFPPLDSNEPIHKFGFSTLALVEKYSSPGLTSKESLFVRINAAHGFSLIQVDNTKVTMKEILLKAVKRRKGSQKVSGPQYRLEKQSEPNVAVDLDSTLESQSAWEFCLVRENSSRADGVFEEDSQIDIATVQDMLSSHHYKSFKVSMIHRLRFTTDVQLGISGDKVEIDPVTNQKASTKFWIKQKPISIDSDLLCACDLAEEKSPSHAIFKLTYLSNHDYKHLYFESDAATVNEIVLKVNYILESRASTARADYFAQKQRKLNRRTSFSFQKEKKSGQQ
T2 sequence (Q9BVC4 whole entry, other chains not shown): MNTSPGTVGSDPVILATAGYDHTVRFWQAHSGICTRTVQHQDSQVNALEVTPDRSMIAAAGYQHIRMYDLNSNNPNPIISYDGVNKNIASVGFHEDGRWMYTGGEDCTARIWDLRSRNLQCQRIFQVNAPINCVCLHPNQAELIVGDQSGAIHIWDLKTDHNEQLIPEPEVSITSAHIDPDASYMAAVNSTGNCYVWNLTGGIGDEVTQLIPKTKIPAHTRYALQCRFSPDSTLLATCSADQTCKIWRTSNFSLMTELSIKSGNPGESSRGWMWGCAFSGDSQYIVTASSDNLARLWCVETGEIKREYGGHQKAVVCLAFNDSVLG
Sequence of Peptidyl-prolyl cis-trans isomerase FKBP1A (P62942 whole entry): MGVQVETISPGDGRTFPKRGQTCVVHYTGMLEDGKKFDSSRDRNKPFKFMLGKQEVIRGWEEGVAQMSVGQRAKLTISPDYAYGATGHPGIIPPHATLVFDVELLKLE

Take `CN(C)C(=O)c1ccc(Oc2nc(-c3cnc(N)cc3C(F)(F)F)nc(N3CCOCC3)n2)c(F)c1`: the IC50 in experiment [1] was < 1000 nM.
As for `CO[C@@H]1C[C@@H]2CC[C@@H](C)[C@@](O)(O2)C(=O)C(=O)N2CCCC[C@H]2C(=O)OC([C@H](C)C[C@@H]2CC[C@@H](O)[C@H](O)C2)C/C=C(\C)[C@@H](O)CC(=O)[C@H](C)C[C@H](C)/C=C/C=C/C=C/1C` (some centres undefined), the Ki in experiment [2] was 4.2 nM.
`C[C@H]1COCCN1c1nc(Oc2ccc(C(=O)N(C)C)cc2)nc(-c2cnc(N)s2)n1`: the IC50 in experiment [1] is < 1000 nM.
Turning to `CO[C@@H]1C[C@@H]2CC[C@@H](C)[C@@](O)(O2)C(=O)C(=O)N2CCCC[C@H]2C(=O)OC([C@H](C)C[C@H]2CC[C@H](O)CC2)C/C=C(\C)[C@@H](O)CC(=O)[C@H](C)C[C@H](C)/C=C/C=C/C=C/1C` (some centres undefined), in experiment [2], the Ki was 7.9 nM.
Take `CO[C@@H]1C[C@@H]2CC[C@@H](C)[C@@](O)(O2)C(=O)C(=O)N2CCCC[C@H]2C(=O)OC([C@H](C)C[C@@H]2CC[C@@H](O)[C@H](OC)C2)C/C=C(\C)[C@@H](O)CC(=O)[C@H](C)C[C@H](C)/C=C/C=C/C=C/1C` (some centres undefined): the inhibitory constant (Ki) in experiment [2] came to 5.9 nM.
Consider `CO[C@@H]1C[C@H](C[C@@H](C)[C@@H]2CC(=O)[C@H](C)/C=C(\C)[C@@H](O)[C@@H](OC)C(=O)[C@H](C)C[C@H](C)/C=C/C=C/C=C(\C)C(OCCO)C[C@@H]3CC[C@@H](C)[C@@](O)(O3)C(=O)C(=O)N3CCCC[C@H]3C(=O)O2)CC[C@H]1OC(=O)NCCc1ccccc1` (some centres undefined), for which the IC50 on mTORC1 [3] is < 0.316 nM; on mTORC2 [4], > 10000 nM.
For `C\C1=C/C=C/C=C/[C@@H](C)C[C@@H](C)C(=O)C[C@H](O)/C(C)=C/CC([C@H](C)C[C@H]2CC[C@H](O)CC2)OC(=O)[C@@H]2CCCCN2C(=O)C(=O)[C@]2(O)O[C@@H](CC[C@H]2C)C[C@H]1O` (some centres undefined), the Ki in experiment [2] is 7.7 nM.
On to `CO[C@@H]1C[C@H](C[C@@H](C)[C@@H]2CC(=O)[C@H](C)/C=C(\C)[C@@H](O)[C@@H](OC)C(=O)[C@H](C)C[C@H](C)/C=C/C=C/C=C(\C)C(OCCO)C[C@@H]3CC[C@@H](C)[C@@](O)(O3)C(=O)C(=O)N3CCCC[C@H]3C(=O)O2)CC[C@H]1OCCCN1C[C@@H](C)O[C@@H](C)C1` (some centres undefined), for which the results for the IC50 on mTORC1 [3] and on mTORC2 [4] were < 0.316 nM and > 10000 nM, respectively.
In the case of `CO[C@@H]1C[C@@H]2CC[C@@H](C)[C@@](O)(O2)C(=O)C(=O)N2CCCC[C@H]2C(=O)OC([C@H](C)C[C@@H]2CC[C@@H](O)[C@H](OC)C2)CC(O)CC(=O)[C@H](C)/C=C(\C)[C@@H](O)CC(=O)[C@H](C)C[C@H](C)/C=C/C=C/C=C/1C` (some centres undefined), the Ki in experiment [2] was 6.5 nM.
As for `CO[C@@H]1C[C@H](C[C@@H](C)[C@@H]2CC(=O)[C@H](C)/C=C(\C)[C@@H](O)[C@@H](OC)C(=O)[C@H](C)C[C@H](C)/C=C/C=C/C=C(\C)C(OCCO)C[C@@H]3CC[C@@H](C)[C@@](O)(O3)C(=O)C(=O)N3CCCC[C@H]3C(=O)O2)CC[C@H]1OCCCN1CCOC(C)(C)C1` (some centres undefined), the IC50 at mTORC1 [3] is < 0.316 nM; on mTORC2 [4], > 10000 nM.
Take `CN(C)C(=O)c1ccc(Oc2nc(-c3cnc4[nH]ccc4c3)nc(N3CCOCC3)n2)c(F)c1`: the IC50 in experiment [1] is < 1000 nM.
Regarding `CO[C@@H]1C[C@H](C[C@@H](C)[C@@H]2CC(=O)[C@H](C)/C=C(\C)[C@@H](O)[C@@H](OC)C(=O)[C@H](C)C[C@H](C)/C=C/C=C/C=C(\C)C(OCCO)C[C@@H]3CC[C@@H](C)[C@@](O)(O3)C(=O)C(=O)N3CCCC[C@H]3C(=O)O2)CC[C@H]1OCCCN1CCOC[C@H]1C` (some centres undefined), the IC50 is < 0.316 nM at mTORC1 [3] and > 10000 nM on mTORC2 [4].
In the case of `COc1cccc2cc(-c3nc([C@H]4CC[C@H](C(=O)NCCOCCOCCNC(=O)CCOCCOCCOCCOCCn5cc(CCCCO[C@@H]6CC[C@@H](C[C@@H](C)[C@@H]7C[C@@H](OC)[C@H](C)/C=C(\C)[C@@H](O)[C@@H](OC)C(=O)[C@H](C)C[C@H](C)C\C=C/C=C/C=C(\C)[C@@H](OC)C[C@@H]8CC[C@@H](C)[C@@](O)(O8)C(=O)C(=O)N8CCCC[C@H]8C(=O)O7)C[C@H]6OC)nn5)CC4)n4ncnc(N)c34)[nH]c12`, the IC50 at mTORC1 [5] was ≤ 1 nM; at mTORC1 [6], ≤ 3.16 nM; on mTORC2 [7], > 31.6 nM.
Regarding `Cc1cc(Oc2nc(-c3ccc(N)nc3)nc(N3CCOCC3)n2)ccc1C(=O)N(C)C`, in experiment [1], the IC50 was < 1000 nM.
For `C[C@H]1COC[C@H](C)N1c1nc(Oc2ccc(C(=O)N(C)C)cc2)nc(-c2cnc(N)s2)n1`, the IC50 in experiment [1] was < 1000 nM.
`CNC(=O)c1cc(-c2ccc3c(N4CCOC[C@@H]4C)nc(N4CCO[C@@H]5CCC[C@@H]54)nc3n2)ccc1F`: the figures for the inhibition at mTORC1 [8] and on mTORC1 [9] were 77.5% and 60.8%, respectively.
As for `CO[C@H]1C[C@@H]2CC[C@@H](C)[C@@](O)(O2)C(=O)C(=O)N2CCCC[C@H]2C(=O)O[C@H]([C@H](C)C[C@@H]2CC[C@@H](O)[C@H](OC)C2)C[C@@H](O)[C@H](C)/C=C(\C)[C@@H](O)[C@@H](OC)/C(=N\OCc2cn(-c3cnc(N4CCN(c5ncc(C(=O)NCCOCCC(=O)NCCCCn6nc(-c7ccc8oc(N)nc8c7)c7c(N)ncnc76)cn5)CC4)nc3)nn2)[C@H](C)C[C@H](C)C\C=C/C=C/C=C/1C`, the IC50 on mTORC1 [5] was ≤ 1 nM; at mTORC1 [6], ≤ 3.16 nM; at mTORC2 [7], > 31.6 nM.
Turning to `CO[C@H]1C[C@@H]2CC[C@@H](C)[C@@](O)(O2)C(=O)C(=O)N2CCCC[C@H]2C(=O)O[C@H]([C@H](C)C[C@@H]2CC[C@@H](OCCCN3CCOC(C)(C)C3)[C@H](OC)C2)CC[C@H](C)/C=C(\C)[C@@H](O)[C@@H](OC)C(NOCC(=O)NCCOCCOCCOCCOCCOCCOCCC(=O)N2CCc3cc(Cn4nc(-c5ccc6oc(N)nc6c5)c5c(N)ncnc54)ccc3C2)[C@H](C)C[C@H](C)C\C=C/C=C/C=C/1C` (some centres undefined), the 50% inhibitory concentration (IC50) was ≤ 1 nM on mTORC1 [5], ≤ 3.16 nM on mTORC1 [6] and 1000 nM at mTORC2 [7].
Turning to `CNC(=O)c1cccc(-c2ccc3c(N4CCOC[C@@H]4C)nc(N4CCOc5ccccc54)nc3n2)c1`, the inhibition came out at 87.7% on mTORC1 [8] and 61% at mTORC1 [9].
On to `CO[C@H]1C[C@@H]2CC[C@@H](C)[C@@](O)(O2)C(=O)C(=O)N2CCCC[C@H]2C(=O)O[C@H]([C@H](C)C[C@@H]2CC[C@@H](OCCCCc3cn(CCOCCOCCOCCOCCOCCOCCC(=O)NCCCCn4nc(-c5cccc(C(=O)NC6=NCCS6)c5)c5c(N)ncnc54)nn3)[C@H](OC)C2)CC(=O)[C@H](C)/C=C(\C)[C@@H](O)[C@@H](OC)C(=O)[C@H](C)C[C@H](C)C\C=C/C=C/C=C/1C`, for which the IC50 at mTORC1 [5] is ≤ 1 nM; on mTORC1 [6] it was ≤ 3.16 nM; on mTORC2 [7], > 31.6 nM.
Consider `CNC(=O)c1cccc(-c2ccc3c(N4CCOC[C@@H]4C)nc(N4CCO[C@@H]5CCCC[C@@H]54)nc3n2)c1`, for which the inhibition on mTORC1 [8] stood at 109%; on mTORC1 [9] it was 77.8%.
With `COc1cccc2cc(-c3nc([C@H]4CC[C@H](C(=O)NCCOCCOCCNC(=O)CCOCCOCCOCCOCCn5cc(CCCCO[C@@H]6CC[C@@H](C[C@@H](C)[C@@H]7CC(=O)[C@H](C)/C=C(\C)[C@@H](O)[C@@H](OC)C(=O)[C@H](C)C[C@H](C)C\C=C/C=C/C=C(\C)[C@@H](OC)C[C@@H]8CC[C@@H](C)[C@@](O)(O8)C(=O)C(=O)N8CCCC[C@H]8C(=O)O7)C[C@H]6OC)nn5)CC4)n4ncnc(N)c34)[nH]c12`, the concentration for half-maximal inhibition (IC50) at mTORC1 [5] was ≤ 1 nM; at mTORC1 [6], ≤ 3.16 nM; on mTORC2 [7], > 31.6 nM.
